According to patent US11578087B2, “Oxaborole esters and uses thereof” (priority 2016, dated 2023):

What was measured:
[1] = tested on: T. cruzi amastigote (Td Tomato-modified) in Vero cells; assay: In vitro IC50 measurement of T. cruzi amastigote killing using Td Tomato-modified T. cruzi; format: cell-based; details: Trypanosoma cruzi, 72 h, fluorescence, read-out: IC50: I Org. amastigote Growth T. cruzi 3 d
Experimental: Example 254. In Vitro IC50 Measurement of T. cruzi Amastigote Killing Using Td Tomato-Modified T. cruzi
The T. cruzi parasites used in this assay were genetically modified to express Td Tomato fluorescent protein. Vero cells (African green monkey kidney epithelial cells) were harvested from continuous cultures using trypsin and added to the inner 60 wells of 96-well Greiner Bio One plates (plate catalog #655090) at 200 ul/well of […]. Cells were allowed to adhere for 1 h before infection with T. cruzi. T. cruzi for infection were harvested from previously-infected Vero cells, washed, pelleted and resuspended at 5×10^6/mL. 50 uL of parasites were added to each well containing Vero cells. Compounds were prepared from 5 mM stock concentrations in DMSO to final concentrations in wells ranging from 5 uM to 5 nM. Wells were provided for negative controls, lacking compounds. Plates were placed into a 37° C. incubator for 20 min, then a “Day 0” reading was taken on a Synergy H4 plate reader to record initial fluorescence levels, at 544 (excitation) and 612 nm (emission). 96-well plates were placed in Tupperware containers with wet paper towels and incubated at 37° C. incubator for 72 h. After 72 h plates were reread (Day 3 reading) and data analyzed using Excel and/or Graphpad software. Day 0 fluorescence was subtracted from Day 3 to remove input parasite fluorescence. Growth curves are generated and 50% and 90% inhibitory concentrations are determined by nonlinear regression analysis.

[2] = tested on: IL3000 T. congolense (drug sensitive) strain; assay: In vitro Alamar Blue 72 h drug sensitivity assay for T. congolense; format: cell-based, Trypanosoma congolense; details: Trypanosoma congolense, 72 h, bloodstream form, 69 h + 3 h Resazurin, 34° C., read-out: IC50: I Org. Growth T. congolense 3 d
Experimental: Example 252. In Vitro Alamar Blue 72 h Drug Sensitivity Assay for T. congolense
Compounds were tested in vitro for chemotherapeutic potency against the IL3000 T. congolense (drug sensitive) strain, using the Alamar Blue assay with several modifications. Test compounds were prepared as 10 mg/mL DMSO stocks for each assay run. Compounds were assayed in at least three separate, independent test runs and an 11-point dilution curve was used to determine the IC50 values. Bloodstream form trypanosomes were supported in HMI media containing 20% bovine serum and were incubated with test compounds for 69 h at 34° C. in a humidified atmosphere containing 5% CO2. Thereafter, 10 μL of Resazurin dye (12.5 mg in 100 mL of phosphate buffered saline, Sigma-Aldrich, Buchs, Switzerland) were added for an additional 3 h. Plates were then read using a fluorescent plate reader (Spectramax, Gemini XS, Bucher Biotec, Basel, Switzerland) using an excitation wavelength of 536 nm and an emission wavelength of 588 nm. Data points were averaged to generate sigmoidal dose-response curves and IC50 values were determined using Softmax Pro 5.2 software.

| Compound | IC50 [1] [nM] | IC50 [2] [nM] |
| --- | --- | --- |
| Cc1c(C(=O)N[C@H](C(=O)OC2CCNCC2)C(C)C)ccc2c1B(O)OC2 [Example 6-146, Piperidin-4-yl (1-hydroxy-7-methyl-1,3-dihydrobenzo[c][1,2]oxaborole-6-carbonyl)-L-valinate] | ≥ 1000 | 10 to 5000 |
| Cc1c(C(=O)N[C@H](C(=O)OCc2cc(F)cc(F)c2)C(C)(C)O)ccc2c1B(O)OC2 [Example 6-099, 3,5-Difluorobenzyl (S)-3-hydroxy-2-(1-hydroxy-7-methyl-1,3-dihydrobenzo[c][1,2]oxaborole-6-carboxamido)-3-methylbutanoate] | 21 to 999 | < 0.5 |
| COCC1(COC(=O)[C@@H](NC(=O)c2ccc3c(c2C)B(O)OC3)C(C)C)CCOCC1 [Example 6-152, (4-(Methoxymethyl)tetrahydro-2H-pyran-4-yl)methyl (1-hydroxy-7-methyl-1,3-dihydrobenzo[c][1,2]oxaborole-6-carbonyl)-L-valinate] | 21 to 999 | < 0.5 |
| Cc1c(C(=O)N[C@H](C(=O)OCc2ccc(F)c(F)c2)C(C)(C)O)ccc2c1B(O)OC2 [Example 6-098, 3,4-Difluorobenzyl (S)-3-hydroxy-2-(1-hydroxy-7-methyl-1,3-dihydrobenzo[c][1,2]oxaborole-6-carboxamido)-3-methylbutanoate] | ≤ 20 | < 0.5 |
| Cc1c(C(=O)N[C@H](C(=O)OCC2CCCCC2)C(C)C)ccc2c1B(O)OC2 [Example 6-119, Cyclohexylmethyl (1-hydroxy-7-methyl-1,3-dihydrobenzo[c][1,2]oxaborole-6-carbonyl)-L-valinate] | ≤ 20 | < 0.5 |
| Cc1c(C(=O)N[C@H](C(=O)OCc2cc(F)c(F)c(F)c2)C(C)(C)O)ccc2c1B(O)OC2 [Example 6-101, 3,4,5-Trifluorobenzyl(S)-3-hydroxy-2-(1-hydroxy-7-methyl-1,3-dihydrobenzo[c][1,2]oxaborole-6-carboxamido)-3-methylbutanoate] | ≤ 20 | < 0.5 |
| Cc1c(C(=O)N[C@H](C(=O)OCC2CCOCC2)C(C)C)ccc2c1B(O)OC2 [Example 6-172, (tetrahydro-2H-pyran-4-yl)methyl (1-hydroxy-7-methyl-1,3-dihydrobenzo[c][1,2]oxaborole-6-carbonyl)-L-valinate] | ≤ 20 | < 0.5 |
| Cc1c(C(=O)N[C@H](C(=O)O[C@@H](C)c2ccccc2)C(C)C)ccc2c1B(O)OC2 [Example 6-199, (S)-1-phenylethyl (1-hydroxy-7-methyl-1,3-dihydrobenzo[c][1,2]oxaborole-6-carbonyl)-L-valinate] | 21 to 999 |  |
| Cc1cc2c(cc1C(=O)N[C@H](C(=O)OCc1ccc(F)cc1)C(C)C)B(O)OC2 [Example 6-129, 4-Fluorobenzyl (1-hydroxy-5-methyl-1,3-dihydrobenzo[c][1,2]oxaborole-6-carbonyl)-L-valinate] | 21 to 999 |  |
| Cc1c(C(=O)N[C@H](C(=O)OCc2ccccn2)C(C)C)ccc2c1B(O)OC2 [Example 6-191, Pyridin-2-ylmethyl (1-hydroxy-7-methyl-1,3-dihydrobenzo[c][1,2]oxaborole-6-carbonyl)-L-valinate] | ≤ 20 |  |
| Cc1c(C(=O)N[C@H](C(=O)OCc2ccc([S+]([O-])C(C)C)cc2)C(C)C)ccc2c1B(O)OC2 (stereo partly drawn) [Example 6-089, 4-(Isopropylsulfinyl)benzyl (1-hydroxy-7-methyl-1,3-dihydrobenzo[c][1,2]oxaborole-6-carbonyl)-L-valinate] | 21 to 999 |  |
| Cc1c(C(=O)N[C@H](C(=O)OCCN2CCC3(CC2)COC3)C(C)C)ccc2c1B(O)OC2 [Example 6-217, 2-(2-oxa-7-azaspiro[3.5]nonan-7-yl)ethyl (1-hydroxy-7-methyl-1,3-dihydrobenzo[c][1,2]oxaborole-6-carbonyl)-L-valinate] | ≥ 1000 |  |
| Cc1c(C(=O)N[C@H](C(=O)OCc2cncc(N3CCNCC3)n2)C(C)C)ccc2c1B(O)OC2 [Example 6-205, (6-(piperazin-1-yl)pyrazin-2-yl)methyl (1-hydroxy-7-methyl-1,3-dihydrobenzo[c][1,2]oxaborole-6-carbonyl)-L-valinate] | ≥ 1000 |  |
| Cc1c(C(=O)N[C@H](C(=O)OCC(C)C)C(C)C)ccc2c1B(O)OC2 [Example 6-116, Isobutyl (1-hydroxy-7-methyl-1,3-dihydrobenzo[c][1,2]oxaborole-6-carbonyl)-L-valinate] | ≤ 20 |  |
| Cc1c(C(=O)NC2(C(=O)OCc3ccc(F)cc3)CC2)ccc2c1B(O)OC2 [Example 6-068, 4-Fluorobenzyl 1-(1-hydroxy-7-methyl-1,3-dihydrobenzo[c][1,2]oxaborole-6-carboxamido)cyclopropane-1-carboxylate] | 21 to 999 |  |
| Cc1c(C(=O)N[C@H](C(=O)OCc2ccc3ncccc3c2)C(C)C)ccc2c1B(O)OC2 [Example 6-127, Quinolin-6-ylmethyl (1-hydroxy-7-methyl-1,3-dihydrobenzo[c][1,2]oxaborole-6-carbonyl)-L-valinate] | 21 to 999 |  |
| Cc1c(C(=O)N[C@H](C(=O)OCc2ccc(S(N)(=O)=O)cc2)C(C)C)ccc2c1B(O)OC2 [Example 6-108, 4-Sulfamoylbenzyl (1-hydroxy-7-methyl-1,3-dihydrobenzo[c][1,2]oxaborole-6-carbonyl)-L-valinate] | ≥ 1000 |  |
| Cc1c(C(=O)N[C@H](C(=O)OCC2COCCO2)C(C)C)ccc2c1B(O)OC2 (stereo partly drawn) [Example 6-227, (1,4-dioxan-2-yl)methyl (1-hydroxy-7-methyl-1,3-dihydrobenzo[c][1,2]oxaborole-6-carbonyl)-L-valinate] | ≤ 20 |  |
| Cc1c(C(=O)N[C@H](C(=O)OCc2cccc(N3CCNCC3)n2)C(C)C)ccc2c1B(O)OC2 [Example 6-213, (6-(piperazin-1-yl)pyridin-2-yl)methyl (1-hydroxy-7-methyl-1,3-dihydrobenzo[c][1,2]oxaborole-6-carbonyl)-L-valinate] | ≥ 1000 |  |
| Cc1c(C(=O)N[C@H](C(=O)OCC2(O)CCOC2)C(C)C)ccc2c1B(O)OC2 (stereo partly drawn) [Example 6-250, (3-hydroxytetrahydrofuran-3-yl)methyl (1-hydroxy-7-methyl-1,3-dihydrobenzo[c][1,2]oxaborole-6-carbonyl)-L-valinate] | ≥ 1000 |  |
| COc1c(C(=O)N[C@H](C(=O)OCc2ccccc2)C(C)C)ccc2c1B(O)OC2 [Example 6-194, Benzyl (1-hydroxy-7-methoxy-1,3-dihydrobenzo[c][1,2]oxaborole-6-carbonyl)-L-valinate] | 21 to 999 |  |
| Cc1c(C(=O)N[C@H](C(=O)OCc2cncc(N(C)C)n2)C(C)C)ccc2c1B(O)OC2 [Example 6-232, (6-(dimethylamino)pyrazin-2-yl)methyl (1-hydroxy-7-methyl-1,3-dihydrobenzo[c][1,2]oxaborole-6-carbonyl)-L-valinate] | ≤ 20 |  |
| Cc1c(C(=O)N[C@H](C(=O)OCC2CCC(F)(F)CC2)C(C)(C)O)ccc2c1B(O)OC2 [Example 6-248, (4,4-difluorocyclohexyl)methyl (S)-3-hydroxy-2-(1-hydroxy-7-methyl-1,3-dihydrobenzo[c][1,2]oxaborole-6-carboxamido)-3-methylbutanoate] | 21 to 999 |  |
| Cc1c(C(=O)N[C@H](C(=O)OCc2ccc(C(=O)N3CCN(C)CC3)cc2)C(C)C)ccc2c1B(O)OC2 [Example 6-105, 4-(4-Methylpiperazine-1-carbonyl)benzyl (1-hydroxy-7-methyl-1,3-dihydrobenzo[c][1,2]oxaborole-6-carbonyl)-L-valinate] | 21 to 999 |  |
| Cc1c(C(=O)N[C@H](C(=O)OCC2CCCC2)C(C)C)ccc2c1B(O)OC2 [Example 6-115, Cyclopentylmethyl (1-hydroxy-7-methyl-1,3-dihydrobenzo[c][1,2]oxaborole-6-carbonyl)-L-valinate] | ≤ 20 |  |
| COc1c(C(=O)N[C@H](C(=O)OCc2ccc(F)cc2)C(C)C)ccc2c1B(O)OC2 [Example 6-195, 4-fluorobenzyl (1-hydroxy-7-methoxy-1,3-dihydrobenzo[c][1,2]oxaborole-6-carbonyl)-L-valinate] | 21 to 999 |  |
| COCC1(COC(=O)[C@@H](NC(=O)c2ccc3c(c2C)B(O)OC3)C(C)C)COC1 [Example 6-158, (3-(Methoxymethyl)oxetan-3-yl)methyl (1-hydroxy-7-methyl-1,3-dihydrobenzo[c][1,2]oxaborole-6-carbonyl)-L-valinate] | 21 to 999 |  |
